The source made the active and inactive calls. The calls are words filed in the database; no cut-off is given here.
Tests used:
[1] = biological target: T1, Peroxiredoxin-1 (Homo sapiens) (UniProt Q06830); assay: Binding affinity to sulfenic acid modified peroxiredoxin human HeLa cells at 10 mM by Western blot; type: cell-based
T1 sequence (whole entry): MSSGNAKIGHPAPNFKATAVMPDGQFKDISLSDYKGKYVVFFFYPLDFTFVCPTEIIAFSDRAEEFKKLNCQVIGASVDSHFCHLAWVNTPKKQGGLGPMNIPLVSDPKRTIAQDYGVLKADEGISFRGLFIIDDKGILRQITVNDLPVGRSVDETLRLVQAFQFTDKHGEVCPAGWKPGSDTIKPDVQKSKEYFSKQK

HeLa [2] = assay: Toxicity against human HeLa cells after 2 hrs by trypan blue exclusion method; type: cell-based
[3] = Binding affinity to Cdc25A C384S mutant assessed as protein labeling based detection of sulfenic acid modification at 20 uM in presence of 5 mM DTT by Western blot
[4] = biological target: Glyceraldehyde-3-phosphate dehydrogenase (Homo sapiens) (UniProt P04406); assay: Binding affinity to sulfenic acid modified GAPDH by Western blot
Chain of Glyceraldehyde-3-phosphate dehydrogenase (Homo sapiens) (P04406 2-335 limits assumed): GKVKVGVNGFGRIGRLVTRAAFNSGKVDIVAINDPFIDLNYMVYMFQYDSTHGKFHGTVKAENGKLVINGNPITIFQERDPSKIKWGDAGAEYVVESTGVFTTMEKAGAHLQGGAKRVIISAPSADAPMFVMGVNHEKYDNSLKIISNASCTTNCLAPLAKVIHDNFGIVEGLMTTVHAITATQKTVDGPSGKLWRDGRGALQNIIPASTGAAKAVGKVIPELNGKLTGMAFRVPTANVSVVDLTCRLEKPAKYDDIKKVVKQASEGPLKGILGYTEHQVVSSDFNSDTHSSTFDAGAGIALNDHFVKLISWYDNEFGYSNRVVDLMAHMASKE

[5] = biological target: Glyceraldehyde-3-phosphate dehydrogenase (Homo sapiens) (UniProt P04406); assay: Binding affinity to sulfenic acid modified GAPDH in human HeLa cells at 10 mM by Western blot; type: cell-based
HeLa [6] = assay: Binding affinity to sulfenic acid modified actin in human HeLa cells at 10 mM by Western blot; type: cell-based
[7] = biological target: Glyceraldehyde-3-phosphate dehydrogenase (Homo sapiens) (UniProt P04406); assay: Inhibition of DAz1-biotin binding to sulfenic acid modified GAPDH at 250 uM by Western blot
[8] = Binding affinity to Cdc25A C384S mutant assessed as protein labeling based detection of sulfenic acid modification at 10 mM by Western blot

Compound: [N-]=[N+]=NCCCNC(=O)C1CC(=O)CC(=O)C1
- Activity [1]: Active
- Activity (HeLa [2]): Non-toxic
- Activity [3]: inactive
- Activity [4]: Active
- Activity [5]: Active
- Activity (HeLa [6]): Active
- inhibition [7]: 90%
- Activity [8]: Active

From ChEMBL document CHEMBL1154543, “Facile synthesis and biological evaluation of a cell-permeable probe to detect redox-regulated proteins” (Bioorg Med Chem Lett, 2009)
